Measured values published in patent US8722849B2, “Polypeptides” (Novo Nordisk A/S, priority 2011, dated 2014).
Converted amounts (≈) assume the structure as drawn. Where two headings read alike, the source gives them in different places. Starred links: 1 amine or outer side, 2 acyl side, 3 side chain; linkers in the order of their positions; H or OH if unused. Positions of bridges follow the written chain, without caps; N, C: chain ends. Residues, ends and D or L forms follow the SMILES beside them. *: point of attachment. C20 diacid = O=C(O)CCCCCCCCCCCCCCCCCCC(=O)*; γGlu = O=C(O)[C@H](CCC(=O)[*:2])N[*:1]

Key:
[1] = molecular target: T1, human amylin receptor (amylin 3(a) receptor: human calcitonin receptor + RAMP-3) (Homo sapiens, UniProt O60896+P30988); assay: Assay (II)a functional CRE-luciferase assay, human amylin receptor; assay type: cell-based; settings: Table 2; BHK amylin 3(a)-receptor/CRE-luc cells
T1 construct: expressed in transfected cells; host or cells: BHK570
T1 sequence (P30988 25-474): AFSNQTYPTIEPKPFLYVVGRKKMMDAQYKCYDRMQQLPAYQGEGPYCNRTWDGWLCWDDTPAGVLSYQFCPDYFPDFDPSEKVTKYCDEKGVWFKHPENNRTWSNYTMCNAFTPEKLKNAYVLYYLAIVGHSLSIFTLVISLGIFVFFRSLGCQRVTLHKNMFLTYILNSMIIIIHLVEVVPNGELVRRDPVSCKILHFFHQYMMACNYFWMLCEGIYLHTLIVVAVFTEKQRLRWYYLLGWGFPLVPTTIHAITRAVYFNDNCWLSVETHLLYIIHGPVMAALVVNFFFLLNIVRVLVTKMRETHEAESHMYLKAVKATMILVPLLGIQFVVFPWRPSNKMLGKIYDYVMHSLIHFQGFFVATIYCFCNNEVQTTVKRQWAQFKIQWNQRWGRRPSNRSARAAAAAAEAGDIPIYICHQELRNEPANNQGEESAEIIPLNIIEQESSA
T1 sequence (O60896 24-148 partner): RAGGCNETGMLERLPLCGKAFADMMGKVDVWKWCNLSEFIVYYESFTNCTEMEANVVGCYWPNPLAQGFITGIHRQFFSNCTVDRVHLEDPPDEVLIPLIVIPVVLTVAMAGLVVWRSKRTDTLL

[2] = Assay (IV) determination of solubility; assay type: physicochemical
Summary of the method: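 Eight 100 mM buffers (glycylglycine pH 3.0–5.0, bistrispropane pH 6.0–8.0) each received an equal volume of polypeptide dissolved in water at ~500 nmol/ml. Soluble polypeptide was measured by HPLC following 18 hours at room temperature and centrifugation.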

[3] = Assay (III) ThT fibrillation assay for physical stability; assay type: physicochemical; settings: ThT fibrillation assay
Summary of the method: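 Freshly prepared formulations, pH-adjusted, with 1 μM ThT; four or eight replicates incubated at 37 °C under 960 rpm orbital shaking. Fluorescence (ex 444/em 485 nm) read every 20 min; […]. Peptide concentration measured by RP-HPLC before and after the run.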

[4] = molecular target: T2, human calcitonin receptor (Homo sapiens, UniProt P30988); assay: Assay (II)a functional CRE-luciferase assay, human calcitonin receptor; assay type: cell-based; settings: Table 7; human calcitonin (CTa) receptor
T2 construct: expressed in transfected cells; host or cells: BHK570
T2 sequence (P30988 25-474): T1 sequence (P30988 25-474)

[5] = bistrispropane buffer, pH 6, pH 6.0, read-out: Solubility pH 6.0
[6] = bistrispropane buffer, pH 6.5, pH 6.5, read-out: Solubility pH 6.5
[7] = bistrispropane buffer, pH 7, pH 7.0, 18 hours at room temperature, Table 3, read-out: Solubility pH 7.0
[8] = bistrispropane buffer, pH 7, pH 7.0, read-out: Solubility pH 7.0
[9] = bistrispropane buffer, pH 7.5, pH 7.5, read-out: Solubility pH 7.5
[10] = bistrispropane buffer, pH 8, pH 8.0, read-out: Solubility pH 8.0
[11] = glycylglycine buffer, pH 3, pH 3.0, read-out: Solubility pH 3.0
[12] = glycylglycine buffer, pH 4, pH 4.0, 18 hours at room temperature, Table 2, read-out: Solubility pH 4.0
[13] = glycylglycine buffer, pH 4, pH 4.0, read-out: Solubility pH 4.0
[14] = glycylglycine buffer, pH 5, pH 5.0, read-out: Solubility pH 5.0

Row | EC50 [1] [nM] | solubility at 18 h [2, 5] [µM] | solubility at 18 h [2, 6] [µM] | solubility at 18 h [2, 7] [µM] | solubility at 18 h [2, 8] [µM] | solubility at 18 h [2, 9] [µM] | solubility at 18 h [2, 10] [µM] | solubility at 18 h [2, 11] [µM] | solubility at 18 h [2, 12] [µM] | solubility at 18 h [2, 13] [µM] | solubility at 18 h [2, 14] [µM] | ThT pH 4.0 lag time (h) [3] [h] | EC50 [4] [nM] | Structure (SMILES) | further results
1 | 0.119 | > 200 | > 200 | > 200 | > 200 | > 200 | > 200 | > 200 | > 200 | > 200 | > 200 | 2.7 | 0.184 | CC[C@H](C)[C@H](NC(=O)[C@@H]1CCCN1C(=O)CNC(=O)[C@H](Cc1ccccc1)NC(=O)[C@H](CC(N)=O)NC(=O)[C@H](CC(N)=O)NC(=O)[C@H](CO)NC(=O)[C@H](CO)NC(=O)[C@H](Cc1c[nH]cn1)NC(=O)[C@H](Cc1c[nH]cn1)NC(=O)[C@H](CC(C)C)NC(=O)[C@H](Cc1ccccc1)NC(=O)[C@H](CCC(=O)O)NC(=O)[C@H](C)NC(=O)[C@H](CC(C)C)NC(=O)[C@H](CCCNC(=N)N)NC(=O)[C@H](CCC(N)=O)NC(=O)[C@@H](NC(=O)[C@H](C)NC(=O)[C@@H]1CSSC[C@H](NC(=O)[C@H](CCCNC(=N)N)NC(=O)[C@H](CCC(=O)O)NC(=O)CC[C@H](NC(=O)CCCCCCCCCCCCCCCCCCC(=O)O)C(=O)O)C(=O)N[C@@H](CC(N)=O)C(=O)N[C@@H]([C@@H](C)O)C(=O)N[C@@H](C)C(=O)N[C@@H]([C@@H](C)O)C(=O)N1)[C@@H](C)O)C(=O)N[C@@H](CC(C)C)C(=O)N1CCC[C@H]1C(=O)N1CCC[C@H]1C(=O)N[C@H](C(=O)N[C@@H](CC(N)=O)C(=O)N[C@H](C(=O)NCC(=O)N[C@@H](CO)C(=O)N[C@@H](CC(N)=O)C(=O)N[C@H](C(=O)N[C@@H](Cc1ccc(O)cc1)C(N)=O)[C@@H](C)O)C(C)C)[C@@H](C)O [Example 25, N-alpha-[(S)-4-Carboxy-4-(19-carboxynonadecanoylamino)butyryl]-Glu-[Arg1,Glu14,His17]-pramlintide] ({C20 diacid-γGlu}-ERCNTATCATQRLAEFLHHSSNNFGPILPPTNVGSNTY-NH2; disulfide 3-8 (inferred)) | –
2 | 0.174 | > 200 | > 200 | > 200 | > 200 | > 200 | > 200 | > 200 | > 200 | > 200 | 69 (≈ 309 µg/mL) | 4.7 | 0.753 | CC[C@H](C)[C@H](NC(=O)[C@@H]1CCCN1C(=O)CNC(=O)[C@H](Cc1ccccc1)NC(=O)[C@H](CC(N)=O)NC(=O)[C@H](CC(N)=O)NC(=O)[C@H](CO)NC(=O)[C@H](CO)NC(=O)[C@H](CCCNC(=N)N)NC(=O)[C@H](Cc1c[nH]cn1)NC(=O)[C@H](CC(C)C)NC(=O)[C@H](Cc1ccccc1)NC(=O)[C@H](CCC(=O)O)NC(=O)[C@H](C)NC(=O)[C@H](CC(C)C)NC(=O)[C@H](CCCNC(=N)N)NC(=O)[C@H](CCC(N)=O)NC(=O)[C@@H](NC(=O)[C@H](C)NC(=O)[C@@H]1CSSC[C@H](NC(=O)[C@H](CCC(=O)O)NC(=O)CC[C@H](NC(=O)CCCCCCCCCCCCCCCCCCC(=O)O)C(=O)O)C(=O)N[C@@H](CC(N)=O)C(=O)N[C@@H]([C@@H](C)O)C(=O)N[C@@H](C)C(=O)N[C@@H]([C@@H](C)O)C(=O)N1)[C@@H](C)O)C(=O)N[C@@H](CC(C)C)C(=O)N1CCC[C@H]1C(=O)N1CCC[C@H]1C(=O)N[C@H](C(=O)N[C@@H](CC(N)=O)C(=O)N[C@H](C(=O)NCC(=O)N[C@@H](CO)C(=O)N[C@@H](CC(N)=O)C(=O)N[C@H](C(=O)N[C@@H](Cc1ccc(O)cc1)C(N)=O)[C@@H](C)O)C(C)C)[C@@H](C)O [Example 30, N-alpha-[(S)-4-Carboxy-4-(19-carboxynonadecanoylamino)butyryl]-[Glu1,Glu14,His17,Arg18]-pramlintide] ({C20 diacid-γGlu}-ECNTATCATQRLAEFLHRSSNNFGPILPPTNVGSNTY-NH2; disulfide 2-7 (inferred)) | –
3 | 1.03 | > 200 | 17 (≈ 82 µg/mL) | – | – | – | 16 (≈ 77.2 µg/mL) | > 200 | > 200 | > 200 | > 200 | 10 | 0.484 | CC[C@H](C)[C@H](NC(=O)[C@@H]1CCCN1C(=O)CNC(=O)[C@H](Cc1ccccc1)NC(=O)[C@H](CC(N)=O)NC(=O)[C@H](CC(N)=O)NC(=O)[C@H](CO)NC(=O)[C@H](CO)NC(=O)[C@H](Cc1c[nH]cn1)NC(=O)[C@H](Cc1c[nH]cn1)NC(=O)[C@H](CC(C)C)NC(=O)[C@H](Cc1ccccc1)NC(=O)[C@H](CCC(=O)O)NC(=O)[C@H](C)NC(=O)[C@H](CC(C)C)NC(=O)[C@H](CCCNC(=N)N)NC(=O)[C@H](CCC(N)=O)NC(=O)[C@@H](NC(=O)[C@H](C)NC(=O)[C@@H]1CSSC[C@H](NC(=O)[C@H](Cc2c[nH]cn2)NC(=O)[C@H](Cc2c[nH]cn2)NC(=O)[C@H](Cc2c[nH]cn2)NC(=O)CC[C@H](NC(=O)CCCCCCCCCCCCCCCCCCC(=O)O)C(=O)O)C(=O)N[C@@H](Cc2c[nH]cn2)C(=O)N[C@@H]([C@@H](C)O)C(=O)N[C@@H](C)C(=O)N[C@@H]([C@@H](C)O)C(=O)N1)[C@@H](C)O)C(=O)N[C@@H](CC(C)C)C(=O)N1CCC[C@H]1C(=O)N[C@@H](Cc1c[nH]cn1)C(=O)N[C@H](C(=O)N[C@@H](CC(N)=O)C(=O)N[C@H](C(=O)NCC(=O)N[C@@H](CO)C(=O)N[C@@H](Cc1c[nH]cn1)C(=O)N[C@H](C(=O)N[C@@H](Cc1ccc(O)cc1)C(N)=O)[C@@H](C)O)C(C)C)[C@@H](C)O [Example 33, N-alpha-[(S)-4-Carboxy-4-(19-carboxynonadecanoylamino)butyryl]-His-His-[His1,His3,Glu14,His17,His29,His35]-pramlintide] ({C20 diacid-γGlu}-HHHCHTATCATQRLAEFLHHSSNNFGPILPHTNVGSHTY-NH2; disulfide 4-9 (inferred); C-terminus assumed) | –
4 | 0.272 | – | – | – | – | – | – | – | – | – | – | 13 | 0.198 | CC[C@H](C)[C@H](NC(=O)[C@@H]1CCCN1C(=O)CNC(=O)[C@H](Cc1ccccc1)NC(=O)[C@H](CC(N)=O)NC(=O)[C@H](CC(N)=O)NC(=O)[C@H](CO)NC(=O)[C@H](CO)NC(=O)[C@H](Cc1c[nH]cn1)NC(=O)[C@H](Cc1c[nH]cn1)NC(=O)[C@H](CC(C)C)NC(=O)[C@H](Cc1ccccc1)NC(=O)[C@H](CCC(=O)O)NC(=O)[C@H](C)NC(=O)[C@H](CC(C)C)NC(=O)[C@H](CCCNC(=N)N)NC(=O)[C@H](CCC(N)=O)NC(=O)[C@@H](NC(=O)[C@H](C)NC(=O)[C@@H]1CSSC[C@H](NC(=O)[C@H](Cc2c[nH]cn2)NC(=O)[C@H](Cc2c[nH]cn2)NC(=O)[C@H](Cc2c[nH]cn2)NC(=O)CC[C@H](NC(=O)CCCCCCCCCCCCCCCCCCC(=O)O)C(=O)O)C(=O)N[C@@H](CC(N)=O)C(=O)N[C@@H]([C@@H](C)O)C(=O)N[C@@H](C)C(=O)N[C@@H]([C@@H](C)O)C(=O)N1)[C@@H](C)O)C(=O)N[C@@H](CC(C)C)C(=O)N1CCC[C@H]1C(=O)N[C@@H](Cc1c[nH]cn1)C(=O)N[C@H](C(=O)N[C@@H](CC(N)=O)C(=O)N[C@H](C(=O)NCC(=O)N[C@@H](CO)C(=O)N[C@@H](Cc1c[nH]cn1)C(=O)N[C@H](C(=O)N[C@@H](Cc1ccc(O)cc1)C(N)=O)[C@@H](C)O)C(C)C)[C@@H](C)O [Example 34, N-alpha-[(S)-4-Carboxy-4-(19-carboxynonadecanoylamino)butyryl]-His-His-[His1,Glu14,His17,His29,His35]-pramlintide] ({C20 diacid-γGlu}-HHHCNTATCATQRLAEFLHHSSNNFGPILPHTNVGSHTY-NH2; disulfide 4-9 (inferred)) | solubility at 18 h ([2]; 18 h, pH 7, read-out: Solubility pH 7.0): 0 µM; solubility at 18 h ([2]; 18 h, pH 7.5, read-out: Solubility pH 7.5): 0 µM; solubility at 18 h ([2]; pH 3, Solubility pH 3.0): > 200 µM; solubility at 18 h ([2]; pH 4, Solubility pH 4.0): > 200 µM; solubility at 18 h ([2]; pH 4, Solubility pH 4.0 (μM)): > 200 µM; solubility at 18 h ([2]; pH 5, Solubility pH 5.0): > 200 µM; solubility at 18 h ([2]; pH 6, Solubility pH 6.0): > 200 µM; solubility at 18 h ([2]; pH 6.5, Solubility pH 6.5): 4 µM (≈ 19.2 µg/mL); solubility at 18 h ([2]; pH 8, Solubility pH 8.0): 13 µM (≈ 62.4 µg/mL)
